Test results from US4692463A, “Antiinflammatory 2,3-didemethylcolchicine and additional derivatives” (The United States of America as represented by the …, priority 1985, dated 1987).

Legend:
[1] = test system: swelling produced by injecting carrageenin into the footpad; assay: animal or person; type: in vivo, mice or rats; settings: for minimal effective dose: Mus musculus, ip, classical drugs, carrageenin swelling screen, read-out: Dose level at which active (antiinflammatory); for Reduction of Swelling 3 hrs / Reduction of Swelling 5 hrs: dose 2 mg/kg i.p.; for Reduction of Swelling 3 hrs: 3 hours after; for Reduction of Swelling 5 hrs: 5 hours after
Source text: The antiinflammatory properties of colchinoids can be evaluated in a classical screening that measures the reduction of swelling produced by injecting (i.p.) carrageenin into the footpad of mice or rats and drug treatment. The drugs can be given orally or intraperitoneally.
Drug given in carrageenine or thyrode solution by i.p.

[2] = Toxicity measured in the P388 screen (weight loss in mice); type: in vivo; settings: for Toxicity: dose which caused average weight loss in mice of 3 g or more: P388 screen
Source text: ^1 Measured in the P388 screen and defined as dose which caused
average weight loss in mice of 3 g or more.

[3] = test system: tubulin protein; type: binding; settings: in vitro

Structure (SMILES)	minimal effective dose [1] [mg/kg]	Toxicity: dose which caused average weight loss in mice of 3 g or more [2]	Toxicity in comparison to colchicine (in words) ([2]; experimental animals)	Reduction of Swelling 3 hrs [1]	Reduction of Swelling 5 hrs [1]	Binding to tubulin protein in comparison to colchicine (in words) [3]
CCCCC1C(=O)N(c2ccccc2)N(c2ccccc2)C1=O [phenybutazone, reference compound]	≥ 100	–	–	–	–	–
COc1c(O)c(O)cc2c1-c1ccc(OC)c(=O)cc1[C@@H](NC(C)=O)CC2 [2,3-Didemethylcolchicine]	–	54	much less toxic	70	60	bind less
COc1c2c(cc3c1-c1ccc(OC)c(=O)cc1[C@@H](NC(C)=O)CC3)OCO2 [Cornigerine, 2,3-(Methylenedioxy)-2,3-didemethoxycolchicine]	–	39	–	44	47	–
COc1ccc2c(c1)c(CC(=O)O)c(C)n2C(=O)c1ccc(Cl)cc1 [indomethacine, reference compound]	≥ 100	–	–	–	–	–
COc1cc2c(c(OC)c1OC)-c1ccc(OC)c(=O)cc1[C@@H](NC(C)=O)CC2 [Colchicine]	–	2.5	–	44	45	–
